Measured values taken from PubChem BioAssay (NCI).
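Cultured in 96-well plates, cells were exposed to test compound for 48 hours across five concentrations. TGI: concentration producing complete growth inhibition.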

Legend:
Assay in all cases: NCI anticancer screen, dose series, 48 h
786-0 renal = tested on: 786-0 renal
A498 renal = tested on: A498 renal
A549 NSCLC = tested on: A549 NSCLC
ACHN renal = tested on: ACHN renal
BT-549 breast = tested on: BT-549 breast
CCRF-CEM leukemia = tested on: CCRF-CEM leukemia
COLO 205 colon = tested on: COLO 205 colon
DU-145 prostate = tested on: DU-145 prostate
EKVX NSCLC = tested on: EKVX NSCLC
HCC-2998 colon = tested on: HCC-2998 colon
HCT-116 colon = tested on: HCT-116 colon
HCT-15 colon = tested on: HCT-15 colon
HL-60(TB) leukemia = tested on: HL-60(TB) leukemia
HOP-62 NSCLC = tested on: HOP-62 NSCLC
HOP-92 NSCLC = tested on: HOP-92 NSCLC
HS 578T breast = tested on: HS 578T breast
IGROV1 ovarian = tested on: IGROV1 ovarian
K-562 leukemia = tested on: K-562 leukemia
KM12 colon = tested on: KM12 colon
LOX IMVI melanoma = tested on: LOX IMVI melanoma
M14 melanoma = tested on: M14 melanoma
MALME-3M melanoma = tested on: MALME-3M melanoma
MCF7 breast = tested on: MCF7 breast
MDA-MB-231 breast = tested on: MDA-MB-231 breast
MDA-MB-435 = tested on: MDA-MB-435
MDA-N = tested on: MDA-N
NCI-H226 lung = tested on: NCI-H226 lung
NCI-H23 lung = tested on: NCI-H23 lung
NCI-H460 lung = tested on: NCI-H460 lung
NCI/ADR-RES ovarian = tested on: NCI/ADR-RES ovarian
OVCAR-3 ovarian = tested on: OVCAR-3 ovarian
OVCAR-4 ovarian = tested on: OVCAR-4 ovarian
OVCAR-5 ovarian = tested on: OVCAR-5 ovarian
OVCAR-8 ovarian = tested on: OVCAR-8 ovarian
PC-3 prostate = tested on: PC-3 prostate
RPMI-8226 leukemia = tested on: RPMI-8226 leukemia
RXF 393 renal = tested on: RXF 393 renal
SF-268 CNS = tested on: SF-268 CNS
SF-295 CNS = tested on: SF-295 CNS
SF-539 CNS = tested on: SF-539 CNS
SK-MEL-28 melanoma = tested on: SK-MEL-28 melanoma
SK-MEL-5 melanoma = tested on: SK-MEL-5 melanoma
SN12C renal = tested on: SN12C renal
SNB-19 CNS = tested on: SNB-19 CNS
SNB-75 CNS = tested on: SNB-75 CNS
SR leukemia = tested on: SR leukemia
SW-620 colon = tested on: SW-620 colon
TK-10 renal = tested on: TK-10 renal
U251 CNS = tested on: U251 CNS
UACC-257 melanoma = tested on: UACC-257 melanoma
UO-31 renal = tested on: UO-31 renal
CAKI-1 renal = tested on: CAKI-1 renal
HT29 colon = tested on: HT29 colon
MOLT-4 leukemia = tested on: MOLT-4 leukemia
NCI-H522 lung = tested on: NCI-H522 lung
SK-MEL-2 melanoma = tested on: SK-MEL-2 melanoma
SK-OV-3 ovarian = tested on: SK-OV-3 ovarian
T-47D breast = tested on: T-47D breast
UACC-62 melanoma = tested on: UACC-62 melanoma

Work on `O=c1cc(NCC2CCCCC2)[nH]c(=O)[nH]1` yielded a TGI (786-0 renal) of over 100 µM, a TGI (A498 renal) of over 100 µM and a TGI (A549 NSCLC) of over 100 µM. The TGI (ACHN renal) was over 100 µM, the TGI (BT-549 breast) was over 100 µM and the TGI (CCRF-CEM leukemia) was over 100 µM. The TGI (COLO 205 colon) was over 100 µM, the TGI (DU-145 prostate) was over 100 µM and the TGI (EKVX NSCLC) was over 100 µM. The TGI (HCC-2998 colon) was over 100 µM, the TGI (HCT-116 colon) was over 100 µM and the TGI (HCT-15 colon) was over 100 µM. For the same molecule, the TGI (HL-60(TB) leukemia) was over 100 µM, the TGI (HOP-62 NSCLC) was over 100 µM and the TGI (HOP-92 NSCLC) was over 100 µM. It also gave a TGI (HS 578T breast) of over 100 µM, a TGI (IGROV1 ovarian) of over 100 µM and a TGI (K-562 leukemia) of over 100 µM. For the same molecule, the TGI (KM12 colon) was over 100 µM, the TGI (LOX IMVI melanoma) was over 100 µM and the TGI (M14 melanoma) was over 100 µM. It also gave a TGI (MALME-3M melanoma) of over 100 µM, a TGI (MCF7 breast) of over 100 µM and a TGI (MDA-MB-231 breast) of over 100 µM. The TGI (MDA-MB-435) was over 100 µM, the TGI (MDA-N) was over 100 µM and the TGI (NCI-H226 lung) was over 100 µM. For the same molecule, the TGI (NCI-H23 lung) was over 100 µM, the TGI (NCI-H460 lung) was over 100 µM and the TGI (NCI/ADR-RES ovarian) was over 100 µM. For the same molecule, the TGI (OVCAR-3 ovarian) was over 100 µM, the TGI (OVCAR-4 ovarian) was over 100 µM and the TGI (OVCAR-5 ovarian) was over 100 µM. For the same molecule, the TGI (OVCAR-8 ovarian) was over 100 µM, the TGI (PC-3 prostate) was over 100 µM and the TGI (RPMI-8226 leukemia) was over 100 µM. It also gave a TGI (RXF 393 renal) of over 100 µM, a TGI (SF-268 CNS) of over 100 µM and a TGI (SF-295 CNS) of over 100 µM. The TGI (SF-539 CNS) was over 100 µM, the TGI (SK-MEL-28 melanoma) was over 100 µM and the TGI (SK-MEL-5 melanoma) was over 100 µM. The TGI (SN12C renal) was over 100 µM, the TGI (SNB-19 CNS) was over 100 µM and the TGI (SNB-75 CNS) was over 100 µM. The TGI (SR leukemia) was over 100 µM, the TGI (SW-620 colon) was over 100 µM and the TGI (TK-10 renal) was over 100 µM. The TGI (U251 CNS) was over 100 µM, the TGI (UACC-257 melanoma) was over 100 µM and the TGI (UO-31 renal) was over 100 µM.

`CCCCSCc1nc2nc(Cl)c(Cl)nc2[nH]1` gave a TGI (786-0 renal) of 69.3 µM, a TGI (A498 renal) of 60.6 µM and a TGI (A549 NSCLC) of over 100 µM. For the same molecule, the TGI (ACHN renal) was 71.5 µM, the TGI (BT-549 breast) was 79.4 µM and the TGI (CAKI-1 renal) was 79.3 µM. For the same molecule, the TGI (CCRF-CEM leukemia) was 63.6 µM, the TGI (COLO 205 colon) was 37 µM and the TGI (DU-145 prostate) was over 100 µM. The TGI (EKVX NSCLC) was over 100 µM, the TGI (HCT-116 colon) was 40.6 µM and the TGI (HCT-15 colon) was 85.5 µM. For the same molecule, the TGI (HOP-62 NSCLC) was 42 µM, the TGI (HOP-92 NSCLC) was over 100 µM and the TGI (HS 578T breast) was over 100 µM. The TGI (HT29 colon) was over 100 µM, the TGI (IGROV1 ovarian) was over 100 µM and the TGI (K-562 leukemia) was 99.5 µM. For the same molecule, the TGI (KM12 colon) was over 100 µM, the TGI (LOX IMVI melanoma) was 44.5 µM and the TGI (M14 melanoma) was 66.6 µM. For the same molecule, the TGI (MALME-3M melanoma) was 53.6 µM, the TGI (MCF7 breast) was 68 µM and the TGI (MDA-MB-231 breast) was 79.2 µM. It also gave a TGI (MDA-MB-435) of over 100 µM, a TGI (MDA-N) of 65.9 µM and a TGI (MOLT-4 leukemia) of 45.5 µM. It also gave a TGI (NCI-H226 lung) of 62.7 µM, a TGI (NCI-H23 lung) of 44.6 µM and a TGI (NCI-H460 lung) of 53.8 µM. It also gave a TGI (NCI-H522 lung) of 42.6 µM, a TGI (NCI/ADR-RES ovarian) of 90.8 µM and a TGI (OVCAR-3 ovarian) of 36.7 µM. For the same molecule, the TGI (OVCAR-4 ovarian) was over 100 µM, the TGI (OVCAR-5 ovarian) was over 100 µM and the TGI (OVCAR-8 ovarian) was over 100 µM. For the same molecule, the TGI (PC-3 prostate) was over 100 µM, the TGI (RPMI-8226 leukemia) was 38.2 µM and the TGI (RXF 393 renal) was 68.8 µM. For the same molecule, the TGI (SF-268 CNS) was over 100 µM, the TGI (SF-295 CNS) was 45.6 µM and the TGI (SF-539 CNS) was over 100 µM. It also gave a TGI (SK-MEL-2 melanoma) of 43.3 µM, a TGI (SK-MEL-28 melanoma) of 71.9 µM and a TGI (SK-MEL-5 melanoma) of 28.8 µM. For the same molecule, the TGI (SK-OV-3 ovarian) was 57.2 µM, the TGI (SN12C renal) was 53.2 µM and the TGI (SNB-19 CNS) was over 100 µM. For the same molecule, the TGI (SNB-75 CNS) was 57.5 µM, the TGI (SR leukemia) was 52.3 µM and the TGI (SW-620 colon) was over 100 µM. The TGI (T-47D breast) was 62.9 µM, the TGI (TK-10 renal) was 73.9 µM and the TGI (U251 CNS) was 55.6 µM. For the same molecule, the TGI (UACC-257 melanoma) was 44.5 µM and the TGI (UACC-62 melanoma) was 29.5 µM.
